This passage reports EC50 and stability results from patent US20240398893A1, “ANTI-CORONAVIRUS POLYPEPTIDE AS WELL AS DERIVATIVE AND APPLICATION THEREOF” (priority 2021, published 2024).

pEC50: −log10 of the molar value.

Data set [1] concerns pseudovirus of the SARS-COV-2 prototype.
The conditions of data set [2]: during purification process of solid-phase synthesis.

`CC[C@H](C)[C@H](NC(=O)CNC(=O)[C@H](CO)NC(=O)[C@@H](NC(=O)[C@H](CC(=O)O)NC(=O)CNC(=O)[C@H](Cc1ccccc1)NC(=O)[C@H](CCCCN)NC(=O)[C@@H](N)C(C)C)[C@@H](C)CC)C(=O)N[C@@H](CC(N)=O)C(=O)N[C@@H](C)C(=O)N[C@@H](CO)C(=O)N[C@H](C(=O)N[C@H](C(=O)N[C@@H](CC(N)=O)C(=O)N[C@H](C(=O)N[C@@H](CCCCN)C(=O)N[C@@H](CCC(=O)O)C(=O)N[C@@H](CCC(=O)O)C(=O)N[C@H](C(=O)N[C@@H](CC(=O)O)C(=O)N[C@@H](CCCNC(=N)N)C(=O)N[C@@H](CC(C)C)C(=O)N[C@@H](Cc1ccc(O)cc1)C(=O)N[C@@H](CCC(=O)O)C(=O)N[C@H](C(=O)N[C@H](C(=O)N[C@@H](CCCCN)C(=O)N[C@@H](CC(N)=O)C(=O)N[C@@H](CC(C)C)C(=O)N[C@@H](CC(N)=O)C(=O)N[C@@H](CCC(=O)O)C(=O)N[C@@H](CO)C(=O)N[C@@H](CC(C)C)C(=O)N[C@H](C(=O)N[C@@H](CC(=O)O)C(=O)N[C@@H](CC(C)C)C(=O)N[C@@H](CCC(N)=O)C(=O)N[C@@H](CCC(=O)O)C(=O)N[C@@H](CC(C)C)C(=O)O)[C@@H](C)CC)C(C)C)C(C)C)[C@@H](C)CC)[C@@H](C)CC)C(C)C)C(C)C` [P3-3] had a pEC50 in data set [1] of 6.30. Turning to “DLGDISGINASVVNIQKEIDRLNEVAKNLNESLIDLQELGSGSGC(CH2CONH(PEG)4CH2COOChol)-NH2 [P3-2-GS-PEG-Chol-1]”, the stability entry in data set [2] is listed as “poor stability”. The same measure, in the same setting: the value for “DLGDISGINASVVNIQKEIDRLNEVAKNLNESLIDLQELGSGSGC(CH2COOChol)-NH2 [P3-2-GS-Chol-1]” was “poor stability”.

As a reminder, the pEC50 is the EC50 on a negative log10 scale, so that one unit is a factor of ten.
